Reference: ChEMBL document CHEMBL1201862, “PubChem BioAssay data set” (2004)
Calls of active or inactive are those of the source.

Key:
[1] = biological target: Serine/threonine-protein phosphatase (Homo sapiens, UniProt Q9BPW0); experiment: Counterscreen for inhibitors of PP1: fluorescence-based biochemical high throughput dose response assay to identify inhibitors of Protein Phosphatase 5 (PP5). [Related pubchem assays: 2034 (Summary (PP5 inhibitors)), 1987 (PP5 inhibitors in singlate), 2235 (PP1 inhibitors in singlate)]
[2] = biological target: T1, Apoptotic protease-activating factor 1 (Homo sapiens, UniProt O14727); experiment: activation of Apaf-1 mediated apoptosis – fluorescent, uHTS hits, dose response (AID 588554); assay type: functional
T1 sequence (O14727 whole entry): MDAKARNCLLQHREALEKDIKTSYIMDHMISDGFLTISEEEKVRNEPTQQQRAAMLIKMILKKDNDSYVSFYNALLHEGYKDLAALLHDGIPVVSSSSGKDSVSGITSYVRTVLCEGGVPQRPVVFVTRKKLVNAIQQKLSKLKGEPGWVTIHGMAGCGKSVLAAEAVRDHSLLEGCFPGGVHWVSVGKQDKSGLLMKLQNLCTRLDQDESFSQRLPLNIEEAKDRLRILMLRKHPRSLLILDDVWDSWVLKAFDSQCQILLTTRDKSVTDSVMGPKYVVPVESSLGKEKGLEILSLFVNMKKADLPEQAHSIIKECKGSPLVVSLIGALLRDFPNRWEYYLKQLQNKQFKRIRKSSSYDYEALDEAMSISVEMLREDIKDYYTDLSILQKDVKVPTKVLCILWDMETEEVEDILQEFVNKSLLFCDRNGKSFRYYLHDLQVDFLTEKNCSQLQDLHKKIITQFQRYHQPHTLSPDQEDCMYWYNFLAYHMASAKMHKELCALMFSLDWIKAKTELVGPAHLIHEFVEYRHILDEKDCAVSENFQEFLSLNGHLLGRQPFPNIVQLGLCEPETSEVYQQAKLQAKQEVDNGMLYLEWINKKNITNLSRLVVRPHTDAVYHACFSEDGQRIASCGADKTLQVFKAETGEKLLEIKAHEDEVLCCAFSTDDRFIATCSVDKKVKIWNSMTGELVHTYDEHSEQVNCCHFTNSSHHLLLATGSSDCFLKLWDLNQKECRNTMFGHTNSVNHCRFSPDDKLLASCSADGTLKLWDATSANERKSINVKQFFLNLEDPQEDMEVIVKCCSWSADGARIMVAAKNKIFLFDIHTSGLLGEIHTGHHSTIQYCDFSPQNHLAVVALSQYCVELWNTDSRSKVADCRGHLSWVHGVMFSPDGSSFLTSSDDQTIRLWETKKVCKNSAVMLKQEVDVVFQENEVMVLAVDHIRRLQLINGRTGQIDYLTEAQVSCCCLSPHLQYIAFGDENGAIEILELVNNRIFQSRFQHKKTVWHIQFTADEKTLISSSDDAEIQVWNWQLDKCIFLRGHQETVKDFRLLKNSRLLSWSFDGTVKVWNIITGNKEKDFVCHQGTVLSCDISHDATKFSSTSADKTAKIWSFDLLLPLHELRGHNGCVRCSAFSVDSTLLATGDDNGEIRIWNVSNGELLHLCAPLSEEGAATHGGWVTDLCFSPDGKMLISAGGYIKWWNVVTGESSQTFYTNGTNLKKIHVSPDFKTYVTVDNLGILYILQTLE

[3] = biological target: T2, Tyrosine-protein phosphatase non-receptor type 22 (Homo sapiens, UniProt Q9Y2R2); experiment: LYP1 Fluorescent Assay using OMFP substrate for In Vitro dose response studies. [Related pubchem assays (depositor defined):AID1779, AID1784, AID435024]
T2 sequence (Q9Y2R2 whole entry): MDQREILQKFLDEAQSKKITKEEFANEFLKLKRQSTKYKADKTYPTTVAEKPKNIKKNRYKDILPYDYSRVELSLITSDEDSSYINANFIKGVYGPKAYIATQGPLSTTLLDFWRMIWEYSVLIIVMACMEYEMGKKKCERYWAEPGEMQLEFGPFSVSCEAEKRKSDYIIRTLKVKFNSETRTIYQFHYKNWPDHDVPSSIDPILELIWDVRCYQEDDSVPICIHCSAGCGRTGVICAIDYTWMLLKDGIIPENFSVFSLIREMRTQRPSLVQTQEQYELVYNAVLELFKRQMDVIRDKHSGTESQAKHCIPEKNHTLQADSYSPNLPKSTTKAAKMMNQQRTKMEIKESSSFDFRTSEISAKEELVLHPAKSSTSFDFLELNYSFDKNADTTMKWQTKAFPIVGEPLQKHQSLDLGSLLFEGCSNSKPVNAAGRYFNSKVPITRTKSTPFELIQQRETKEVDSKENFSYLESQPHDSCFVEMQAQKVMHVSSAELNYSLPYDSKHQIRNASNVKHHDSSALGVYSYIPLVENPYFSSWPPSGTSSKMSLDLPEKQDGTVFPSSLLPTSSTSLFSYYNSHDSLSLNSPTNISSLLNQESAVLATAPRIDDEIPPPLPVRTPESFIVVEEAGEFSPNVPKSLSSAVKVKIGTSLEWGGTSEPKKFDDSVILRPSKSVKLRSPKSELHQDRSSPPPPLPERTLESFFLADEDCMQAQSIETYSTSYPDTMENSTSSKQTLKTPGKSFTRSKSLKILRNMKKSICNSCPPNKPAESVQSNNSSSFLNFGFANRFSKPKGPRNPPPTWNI

[4] = biological target: DNA (cytosine-5)-methyltransferase 1 (Homo sapiens, UniProt P26358); experiment: inhibition of DNA methylation by DNMT1 – biochemical, fluorescent molecular beacon, confirmation (AID 602386); assay type: functional
[5] = biological target: T2, Tyrosine-protein phosphatase non-receptor type 22; assay type: functional
ORF 73 = ORF 73 (Human herpesvirus 8, UniProt O40947); experiment: KSHV LANA DNA-binding disruption – biochemical, fluorescence polarization, cherry-picked samples, dose response (AID 504725); design: species or system Human gammaherpesvirus 8;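 also: fluorescence polarization of a labeled DNA duplex reporting LANA DNA binding; potency is for inhibitors that block LANA binding to the DNA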
[6] = biological target: T3, Tyrosine-protein phosphatase non-receptor type 7 (Homo sapiens, UniProt P35236); assay type: functional
T3 sequence (P35236 whole entry): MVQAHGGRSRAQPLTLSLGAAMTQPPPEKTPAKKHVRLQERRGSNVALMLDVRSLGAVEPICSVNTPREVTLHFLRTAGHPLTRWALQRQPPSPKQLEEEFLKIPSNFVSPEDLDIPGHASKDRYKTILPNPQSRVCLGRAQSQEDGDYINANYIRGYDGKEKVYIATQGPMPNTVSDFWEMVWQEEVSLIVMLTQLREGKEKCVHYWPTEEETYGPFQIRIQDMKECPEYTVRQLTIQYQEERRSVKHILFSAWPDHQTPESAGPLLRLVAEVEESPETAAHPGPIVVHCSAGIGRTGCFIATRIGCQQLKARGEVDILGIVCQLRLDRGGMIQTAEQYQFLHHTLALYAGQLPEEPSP

[7] = biological target: T2, Tyrosine-protein phosphatase non-receptor type 22; assay type: functional; remark: listed apart in the source
[8] = biological target: Serine/threonine-protein phosphatase PP1-alpha catalytic subunit (Homo sapiens, UniProt P62136); experiment: inhibition of protein phosphatase 1 activity – biochemical, fluorescence, dose response (AID 2403);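 also: phosphatase turnover of OMFP into fluorescent 3-O-methylfluorescein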
[9] = biological target: T3, Tyrosine-protein phosphatase non-receptor type 7; experiment: HTS HePTP Fluorescent Assay using OMFP substrate for In Vitro dose response studies. [Related pubchem assays (depositor defined):AID1059, AID1077, AID1784, AID2068, AID2085, AID435032, AID521]; assay type: functional
[10] = biological target: T2, Tyrosine-protein phosphatase non-receptor type 22; experiment: PTPN22 lymphoid phosphatase activity blockers – biochemical, fluorescence intensity, uHTS (AID 1779)
[11] = biological target: Beta-adrenergic receptor kinase 1 (Homo sapiens, UniProt P25098); experiment: aptamer displacement from bead-bound GRK2 – biochemical, cherry pick 1, bead flow cytometry, dose response (AID 504500)
[12] = biological target: T4, Carboxy-terminal domain RNA polymerase II polypeptide A small phosphatase 1 (Homo sapiens, UniProt Q9GZU7); experiment: CTDSP1 inhibitors, concentration-response, biochemical, absorbance readout, ultra-high-throughput screen actives (AID 540297); assay type: functional
T4 sequence (Q9GZU7 whole entry): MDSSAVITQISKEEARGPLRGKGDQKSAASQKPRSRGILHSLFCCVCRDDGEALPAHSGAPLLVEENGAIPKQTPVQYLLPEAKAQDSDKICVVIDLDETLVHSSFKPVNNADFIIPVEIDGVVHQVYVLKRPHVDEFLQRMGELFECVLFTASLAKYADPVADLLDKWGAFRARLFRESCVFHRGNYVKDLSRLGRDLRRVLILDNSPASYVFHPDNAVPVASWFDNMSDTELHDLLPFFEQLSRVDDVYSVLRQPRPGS

DNA topoisomerase = DNA topoisomerase (Yersinia pestis, UniProt A0A2S9PM60); experiment: Yersinia topoisomerase I cleavage product accumulation – biochemical, cherry-pick, dose response (AID 588525)
DNA topoisomerase, sequence (A0A2S9PM60 whole entry): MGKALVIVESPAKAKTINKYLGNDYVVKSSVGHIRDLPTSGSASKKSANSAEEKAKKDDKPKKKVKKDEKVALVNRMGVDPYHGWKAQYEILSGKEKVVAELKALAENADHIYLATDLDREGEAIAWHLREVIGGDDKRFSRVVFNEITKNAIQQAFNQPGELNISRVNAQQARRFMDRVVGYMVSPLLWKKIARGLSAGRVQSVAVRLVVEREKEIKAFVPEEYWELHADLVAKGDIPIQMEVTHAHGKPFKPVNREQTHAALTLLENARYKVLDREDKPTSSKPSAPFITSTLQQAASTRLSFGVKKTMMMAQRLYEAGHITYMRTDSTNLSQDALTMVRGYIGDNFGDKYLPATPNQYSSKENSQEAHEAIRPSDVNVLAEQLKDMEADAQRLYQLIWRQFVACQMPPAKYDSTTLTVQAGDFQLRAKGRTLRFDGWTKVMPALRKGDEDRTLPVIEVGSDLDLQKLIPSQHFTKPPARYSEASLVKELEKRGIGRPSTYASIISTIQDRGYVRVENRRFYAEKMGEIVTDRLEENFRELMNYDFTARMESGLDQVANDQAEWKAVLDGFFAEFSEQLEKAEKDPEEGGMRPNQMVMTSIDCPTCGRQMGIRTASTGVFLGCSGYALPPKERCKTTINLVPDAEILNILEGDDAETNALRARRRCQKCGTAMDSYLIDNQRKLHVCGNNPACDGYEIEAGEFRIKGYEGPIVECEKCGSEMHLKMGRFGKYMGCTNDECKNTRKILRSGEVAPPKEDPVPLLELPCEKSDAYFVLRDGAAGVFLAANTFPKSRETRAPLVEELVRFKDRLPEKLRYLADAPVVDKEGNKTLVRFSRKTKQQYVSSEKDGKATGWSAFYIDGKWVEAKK

Beta-adrenergic receptor kinase 1, sequence (P25098 whole entry, the tested form may be a part): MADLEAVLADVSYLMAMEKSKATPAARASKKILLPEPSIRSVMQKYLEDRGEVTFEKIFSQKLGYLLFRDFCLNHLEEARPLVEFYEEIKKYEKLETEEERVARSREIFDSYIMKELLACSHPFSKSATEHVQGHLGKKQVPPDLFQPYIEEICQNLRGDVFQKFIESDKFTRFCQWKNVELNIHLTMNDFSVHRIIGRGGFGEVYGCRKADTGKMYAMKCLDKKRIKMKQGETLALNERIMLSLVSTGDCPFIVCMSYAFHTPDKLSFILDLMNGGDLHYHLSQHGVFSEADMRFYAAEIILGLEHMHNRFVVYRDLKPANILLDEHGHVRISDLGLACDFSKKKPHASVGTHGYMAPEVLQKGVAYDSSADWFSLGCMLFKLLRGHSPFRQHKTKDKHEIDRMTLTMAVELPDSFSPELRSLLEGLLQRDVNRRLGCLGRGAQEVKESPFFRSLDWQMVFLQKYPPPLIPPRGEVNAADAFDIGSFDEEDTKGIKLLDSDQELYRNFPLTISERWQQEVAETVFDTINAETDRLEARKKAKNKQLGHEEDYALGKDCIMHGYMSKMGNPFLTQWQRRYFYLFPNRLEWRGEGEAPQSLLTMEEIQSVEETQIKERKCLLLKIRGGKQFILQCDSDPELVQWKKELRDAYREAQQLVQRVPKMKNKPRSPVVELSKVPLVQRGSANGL
Serine/threonine-protein phosphatase PP1-alpha catalytic subunit, sequence (P62136 whole entry): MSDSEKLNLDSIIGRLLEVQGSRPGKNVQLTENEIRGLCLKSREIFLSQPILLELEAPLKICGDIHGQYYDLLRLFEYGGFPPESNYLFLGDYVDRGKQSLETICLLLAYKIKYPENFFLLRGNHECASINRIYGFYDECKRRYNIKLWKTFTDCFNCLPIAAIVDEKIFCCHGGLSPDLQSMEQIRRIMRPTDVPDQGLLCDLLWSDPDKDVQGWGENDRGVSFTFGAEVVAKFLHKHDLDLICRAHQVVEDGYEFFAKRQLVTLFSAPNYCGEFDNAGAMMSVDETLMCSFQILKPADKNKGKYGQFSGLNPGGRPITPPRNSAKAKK
Serine/threonine-protein phosphatase, sequence (Q9BPW0 whole entry): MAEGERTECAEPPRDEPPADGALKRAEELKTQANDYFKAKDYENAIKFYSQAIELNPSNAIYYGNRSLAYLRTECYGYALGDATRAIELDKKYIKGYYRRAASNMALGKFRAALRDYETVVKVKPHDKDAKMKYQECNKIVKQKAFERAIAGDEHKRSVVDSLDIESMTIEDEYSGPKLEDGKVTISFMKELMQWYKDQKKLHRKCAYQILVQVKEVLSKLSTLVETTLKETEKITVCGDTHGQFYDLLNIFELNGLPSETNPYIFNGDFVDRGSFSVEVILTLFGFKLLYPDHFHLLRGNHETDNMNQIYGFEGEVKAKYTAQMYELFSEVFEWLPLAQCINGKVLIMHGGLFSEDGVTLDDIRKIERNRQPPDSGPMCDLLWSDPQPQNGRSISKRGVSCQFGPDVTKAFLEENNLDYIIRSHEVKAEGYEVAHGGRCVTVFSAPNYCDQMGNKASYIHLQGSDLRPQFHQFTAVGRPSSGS
ORF 73, sequence (O40947 whole entry): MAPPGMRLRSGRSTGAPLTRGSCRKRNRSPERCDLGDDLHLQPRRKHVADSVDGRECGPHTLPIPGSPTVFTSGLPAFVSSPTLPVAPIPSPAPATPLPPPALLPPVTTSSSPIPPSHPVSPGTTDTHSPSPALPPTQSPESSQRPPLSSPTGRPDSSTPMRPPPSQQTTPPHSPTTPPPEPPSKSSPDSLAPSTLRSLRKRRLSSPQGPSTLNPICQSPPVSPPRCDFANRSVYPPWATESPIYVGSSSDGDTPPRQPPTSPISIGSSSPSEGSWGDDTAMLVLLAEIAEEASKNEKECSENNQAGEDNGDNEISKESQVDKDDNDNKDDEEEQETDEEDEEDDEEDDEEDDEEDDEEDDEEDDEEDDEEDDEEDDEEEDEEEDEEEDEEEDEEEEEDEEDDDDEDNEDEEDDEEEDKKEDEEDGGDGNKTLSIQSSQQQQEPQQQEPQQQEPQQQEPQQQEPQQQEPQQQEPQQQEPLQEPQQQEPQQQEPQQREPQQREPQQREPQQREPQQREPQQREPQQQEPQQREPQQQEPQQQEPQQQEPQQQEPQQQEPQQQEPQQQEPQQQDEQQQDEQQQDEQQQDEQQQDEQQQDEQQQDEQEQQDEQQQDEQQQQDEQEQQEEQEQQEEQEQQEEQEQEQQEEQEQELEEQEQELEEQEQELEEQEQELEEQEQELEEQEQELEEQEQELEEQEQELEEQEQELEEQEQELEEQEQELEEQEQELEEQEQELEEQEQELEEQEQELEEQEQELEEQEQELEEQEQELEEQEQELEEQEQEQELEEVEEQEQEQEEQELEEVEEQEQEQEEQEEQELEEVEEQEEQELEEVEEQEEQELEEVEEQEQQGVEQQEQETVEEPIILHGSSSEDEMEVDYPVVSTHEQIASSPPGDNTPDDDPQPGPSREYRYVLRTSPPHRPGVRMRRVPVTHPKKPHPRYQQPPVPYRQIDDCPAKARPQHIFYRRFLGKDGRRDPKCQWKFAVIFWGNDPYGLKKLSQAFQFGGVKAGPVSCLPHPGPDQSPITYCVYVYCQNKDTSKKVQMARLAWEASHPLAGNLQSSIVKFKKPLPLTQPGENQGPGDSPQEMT
DNA (cytosine-5)-methyltransferase 1, sequence (P26358 whole entry): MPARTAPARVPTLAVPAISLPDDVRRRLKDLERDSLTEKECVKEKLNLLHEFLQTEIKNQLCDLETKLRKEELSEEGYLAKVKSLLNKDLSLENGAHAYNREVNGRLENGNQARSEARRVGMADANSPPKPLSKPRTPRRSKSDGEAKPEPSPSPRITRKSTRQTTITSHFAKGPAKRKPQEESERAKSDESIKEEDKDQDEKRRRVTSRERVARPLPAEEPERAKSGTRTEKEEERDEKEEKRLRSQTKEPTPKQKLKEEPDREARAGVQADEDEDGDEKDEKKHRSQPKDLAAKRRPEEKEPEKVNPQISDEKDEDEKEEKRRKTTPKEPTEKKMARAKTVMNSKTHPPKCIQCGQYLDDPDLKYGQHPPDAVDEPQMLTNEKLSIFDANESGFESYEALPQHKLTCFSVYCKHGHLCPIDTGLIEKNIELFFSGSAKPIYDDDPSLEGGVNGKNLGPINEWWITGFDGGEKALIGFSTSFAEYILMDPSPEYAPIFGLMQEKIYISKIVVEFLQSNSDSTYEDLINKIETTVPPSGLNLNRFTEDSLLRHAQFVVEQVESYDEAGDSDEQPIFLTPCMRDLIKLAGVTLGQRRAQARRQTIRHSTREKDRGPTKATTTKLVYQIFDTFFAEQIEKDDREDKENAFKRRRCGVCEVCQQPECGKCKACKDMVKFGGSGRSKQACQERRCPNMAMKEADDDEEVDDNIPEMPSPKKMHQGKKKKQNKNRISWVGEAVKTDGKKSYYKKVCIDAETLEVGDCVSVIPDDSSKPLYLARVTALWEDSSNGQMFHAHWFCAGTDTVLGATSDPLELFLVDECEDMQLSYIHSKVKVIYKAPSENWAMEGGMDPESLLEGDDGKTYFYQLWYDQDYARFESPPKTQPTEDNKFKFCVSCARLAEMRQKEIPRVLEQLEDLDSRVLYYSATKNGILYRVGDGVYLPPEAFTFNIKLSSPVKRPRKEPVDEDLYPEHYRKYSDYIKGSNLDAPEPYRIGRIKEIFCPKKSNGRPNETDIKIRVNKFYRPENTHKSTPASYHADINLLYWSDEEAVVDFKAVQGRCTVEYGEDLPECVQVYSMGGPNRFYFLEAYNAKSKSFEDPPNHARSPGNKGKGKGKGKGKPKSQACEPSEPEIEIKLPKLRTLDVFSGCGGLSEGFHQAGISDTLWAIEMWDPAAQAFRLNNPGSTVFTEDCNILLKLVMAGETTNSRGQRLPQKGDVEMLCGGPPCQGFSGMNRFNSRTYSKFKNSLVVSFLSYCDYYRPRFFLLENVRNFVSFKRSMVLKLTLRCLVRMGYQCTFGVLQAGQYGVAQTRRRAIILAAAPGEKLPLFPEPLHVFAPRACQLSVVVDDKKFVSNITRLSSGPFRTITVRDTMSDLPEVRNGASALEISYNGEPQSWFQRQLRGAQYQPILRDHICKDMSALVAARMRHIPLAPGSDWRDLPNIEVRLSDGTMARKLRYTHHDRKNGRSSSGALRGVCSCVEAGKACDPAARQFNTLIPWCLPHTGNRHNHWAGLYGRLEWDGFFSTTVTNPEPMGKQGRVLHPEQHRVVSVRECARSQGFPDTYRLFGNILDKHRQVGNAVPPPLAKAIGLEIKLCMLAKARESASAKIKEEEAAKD

With CC(C)(CS(=O)(=O)[O-])NC(=O)CC[N+](C)(C)CCO as the molecule, how does the IC50 [1] read?
The IC50 was > 67 µM (not active).

What about the EC50 [2] of the same molecule?
The EC50 was 1.16 µM (active).

And the IC50 [3]?
Its IC50 is 4.28 µM (active).

And the IC50 [4]?
Its IC50 is 3.6 µM (active).

And the IC50 [5]?
Its IC50 is 5.97 µM (active).

And the AC50 (ORF 73)?
Its AC50 is 39.8 µM (active).

And the IC50 [6]?
Its IC50 is 17.9 µM (active).

What about the IC50 [7] of the same molecule?
Its IC50 is 4.08 µM (active).

And the IC50 [8]?
Its IC50 is 2.46 µM (active).

And the IC50 [9]?
Its IC50 is 28.6 µM (active).

What about the IC50 [10] of the same molecule?
Its IC50 is 10.9 µM (active).

What about the EC50 [11] of the same molecule?
Its EC50 is 0.67 µM (active).

What about the IC50 [12] of the same molecule?
Its IC50 is 0.453 µM (active).

Which AC50 (DNA topoisomerase) does the source give for CCOc1ccc(N2C(=O)CC(N3CCN(c4ccc(C(=O)c5ccncc5)cc4)CC3)C2=O)cc1 (centres undefined) here?
The AC50 was 10.6 µM (active).
